Laboratory results from ChEMBL document CHEMBL1141496, “Biphenylsulfonyl-thiophene-carboxamidine inhibitors of the complement component C1s” (Bioorg Med Chem Lett, 2008).
Values after ≈ are worked out from the molar mass of the structure shown.

Tests used:
[1] = biological target: T1, Complement C1s subcomponent (Homo sapiens, UniProt P09871); experiment: Inhibition of Complement C1s subcomponent
T1 sequence (P09871 whole entry): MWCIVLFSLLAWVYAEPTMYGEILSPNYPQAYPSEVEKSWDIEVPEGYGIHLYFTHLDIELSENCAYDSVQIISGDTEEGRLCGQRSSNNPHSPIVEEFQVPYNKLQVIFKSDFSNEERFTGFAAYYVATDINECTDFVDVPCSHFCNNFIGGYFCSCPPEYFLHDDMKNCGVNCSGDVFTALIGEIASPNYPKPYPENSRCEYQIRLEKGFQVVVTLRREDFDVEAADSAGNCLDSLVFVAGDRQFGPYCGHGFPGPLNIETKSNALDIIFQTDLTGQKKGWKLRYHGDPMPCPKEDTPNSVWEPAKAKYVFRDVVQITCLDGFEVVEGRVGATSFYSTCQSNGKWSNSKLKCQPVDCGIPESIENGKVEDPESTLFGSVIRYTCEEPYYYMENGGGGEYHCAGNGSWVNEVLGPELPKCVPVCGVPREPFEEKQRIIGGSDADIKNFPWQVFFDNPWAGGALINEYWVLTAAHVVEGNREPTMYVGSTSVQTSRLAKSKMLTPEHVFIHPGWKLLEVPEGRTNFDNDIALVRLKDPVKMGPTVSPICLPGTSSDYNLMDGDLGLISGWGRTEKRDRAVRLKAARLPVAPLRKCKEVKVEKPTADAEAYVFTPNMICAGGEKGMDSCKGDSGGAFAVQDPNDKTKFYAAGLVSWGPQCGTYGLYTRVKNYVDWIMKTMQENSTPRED

[2] = Aqueous solubility at physiological pH; assay type: physicochemical
[3] = Half life in rat at 2 mg/kg, iv; assay type: ADME, organism-based; parameters: dose 2 mg/kg, route intravenous; settings: in vivo
[4] = Volume of distribution in rat at 2 mg/kg, iv; assay type: ADME, organism-based; parameters: dose 2 mg/kg, route intravenous; settings: in vivo
[5] = Clearance in rat at 2 mg/kg, iv; assay type: ADME, organism-based; parameters: dose 2 mg/kg, route intravenous; settings: in vivo
hERG (KCNH2) = hERG (KCNH2) (Homo sapiens, UniProt Q12809); experiment: Inhibition of human ERG at 10 uM by patch clamp assay
hERG (KCNH2), sequence (Q12809 whole entry): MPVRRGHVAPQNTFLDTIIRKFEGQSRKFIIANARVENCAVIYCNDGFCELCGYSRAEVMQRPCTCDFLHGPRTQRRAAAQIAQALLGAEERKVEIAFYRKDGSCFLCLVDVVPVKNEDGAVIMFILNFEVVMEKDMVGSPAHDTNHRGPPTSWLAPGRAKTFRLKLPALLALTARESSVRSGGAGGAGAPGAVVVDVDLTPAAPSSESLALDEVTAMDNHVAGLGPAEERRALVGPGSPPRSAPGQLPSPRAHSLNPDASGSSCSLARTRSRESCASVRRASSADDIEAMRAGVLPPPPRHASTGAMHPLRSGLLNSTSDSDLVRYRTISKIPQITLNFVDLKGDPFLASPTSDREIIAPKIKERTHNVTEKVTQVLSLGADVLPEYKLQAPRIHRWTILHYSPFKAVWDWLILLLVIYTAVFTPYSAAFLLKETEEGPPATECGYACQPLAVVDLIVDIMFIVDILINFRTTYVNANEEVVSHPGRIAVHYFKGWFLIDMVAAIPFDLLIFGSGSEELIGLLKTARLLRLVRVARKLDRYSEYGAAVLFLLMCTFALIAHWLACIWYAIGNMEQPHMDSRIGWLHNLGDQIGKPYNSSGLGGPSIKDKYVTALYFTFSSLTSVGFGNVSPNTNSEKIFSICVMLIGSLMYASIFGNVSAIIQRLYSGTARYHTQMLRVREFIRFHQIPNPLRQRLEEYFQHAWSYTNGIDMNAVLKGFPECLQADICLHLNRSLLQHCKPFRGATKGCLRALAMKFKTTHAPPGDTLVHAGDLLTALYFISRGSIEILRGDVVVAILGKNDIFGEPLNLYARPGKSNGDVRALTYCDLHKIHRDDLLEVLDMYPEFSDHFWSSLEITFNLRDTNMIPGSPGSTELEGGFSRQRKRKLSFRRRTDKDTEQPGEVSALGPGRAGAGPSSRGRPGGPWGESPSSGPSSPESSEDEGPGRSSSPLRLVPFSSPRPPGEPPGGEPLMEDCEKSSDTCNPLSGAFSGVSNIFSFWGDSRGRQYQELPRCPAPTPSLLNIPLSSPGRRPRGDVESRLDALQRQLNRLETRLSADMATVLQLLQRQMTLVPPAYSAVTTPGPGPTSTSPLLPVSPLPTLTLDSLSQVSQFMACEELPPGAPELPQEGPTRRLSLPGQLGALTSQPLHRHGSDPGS

Row | SMILES | Ki [1] | other results
1 | CSc1sc(C(=N)N)cc1S(=O)(=O)c1cccc(-c2ccccc2C)c1 | 30 nM | –
2 | CSc1sc(C(=N)N)cc1S(=O)(=O)c1cccc(-c2c(C)cccc2NC(=O)CCCS(C)(=O)=O)c1 | 14 nM | solubility [2]: 35 µM (≈ 19.8 µg/mL); half-life [3]: 1.8 h; Vd [4]: 2.03 L/kg; clearance [5]: 130 mL/min/kg
3 | COc1ccccc1-c1cccc(S(=O)(=O)c2cc(C(=N)N)sc2SC)c1 | 610 nM | –
4 | CSc1sc(C(=N)N)cc1S(=O)(=O)c1cccc(-c2ccc(C)cc2)c1 | 250 nM | –
5 | CSc1sc(C(=N)N)cc1S(=O)(=O)c1cccc(-c2c(C)cccc2NC(=O)CS(C)(=O)=O)c1 | 120 nM | solubility [2]: 43 µM (≈ 23.1 µg/mL)
6 | CSc1sc(C(=N)N)cc1S(=O)(=O)c1cccc(-c2cccc(O)c2)c1 | 150 nM | –
7 | CSc1sc(C(=N)N)cc1S(=O)(=O)c1cccc(-c2cccc(C)n2)c1 | 40 nM | solubility [2]: 22 µM (≈ 8.88 µg/mL); inhibition at 10 µM (hERG (KCNH2)): 66%; half-life [3]: 2 h; Vd [4]: 15 L/kg; clearance [5]: 283 mL/min/kg
8 | C=Cc1ccccc1-c1cccc(S(=O)(=O)c2cc(C(=N)N)sc2SC)c1 | 140 nM | –
9 | CSc1sc(C(=N)N)cc1S(=O)(=O)c1cccc(Br)c1 | 360 nM | –
10 | CSc1sc(C(=N)N)cc1S(=O)(=O)c1cccc(-c2ccccc2)c1 | 260 nM | –
11 | COc1ccc(-c2cccc(S(=O)(=O)c3cc(C(=N)N)sc3SC)c2)cc1 | 350 nM | –
12 | CSc1sc(C(=N)N)cc1S(=O)(=O)c1cccc(-c2cccc(C)c2)c1 | 1850 nM | –

Further molecules by falling Ki [1], results first:

Row | Ki [1] | SMILES | other results
13 | 490 nM | COc1cccc(-c2cccc(S(=O)(=O)c3cc(C(=N)N)sc3SC)c2)c1 | –
14 | 460 nM | CSc1sc(C(=N)N)cc1S(=O)(=O)c1cccc(-c2ccccc2O)c1 | –
15 | 190 nM | CSc1sc(C(=N)N)cc1S(=O)(=O)c1cccc(-c2ccc(O)cc2)c1 | –
16 | 150 nM | CSc1sc(C(=N)N)cc1S(=O)(=O)c1cccc(-c2c(C)cccc2C(=O)O)c1 | –
17 | 120 nM | CSc1sc(C(=N)N)cc1S(=O)(=O)c1cccc(-c2ccccc2CO)c1 | –
18 | 64 nM | CSc1sc(C(=N)N)cc1S(=O)(=O)c1cccc(-c2c(C)cccc2NC(=O)NCCc2nn[nH]n2)c1 | inhibition at 10 µM (hERG (KCNH2)): 1%
19 | 50 nM | CSc1sc(C(=N)N)cc1S(=O)(=O)c1cccc(-c2c(C)cccc2CO)c1 | –
20 | 42 nM | CSc1sc(C(=N)N)cc1S(=O)(=O)c1cccc(-c2c(C)cccc2NC(=O)CCCCC(=O)O)c1 | solubility [2]: 40 µM (≈ 21.8 µg/mL)
21 | 40 nM | CSc1sc(C(=N)N)cc1S(=O)(=O)c1cccc(-c2ccccc2Cl)c1 | –
22 | 22 nM | CSc1sc(C(=N)N)cc1S(=O)(=O)c1cccc(-c2c(C)cccc2NC(=O)NCCCCCC(=O)O)c1 | solubility [2]: 39 µM (≈ 22.4 µg/mL); inhibition at 10 µM (hERG (KCNH2)): 5.8%; half-life [3]: 0.2 h; Vd [4]: 2.65 L/kg; clearance [5]: 228 mL/min/kg
23 | 20 nM | CSc1sc(C(=N)N)cc1S(=O)(=O)c1cccc(-c2c(C)cccc2N)c1 | –
